Records with an inconclusive call do not appear. Calls of active or inactive are those of the source. The rule behind the calls is not given here.
Experiments:
[1] = system: HCS imaging, dynein-mediated cargo transport inhibition; experiment: dynein cargo transport inhibitors, potency, dose response, imaging, high-content imaging (AID 463136);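 note: mouse mammary adenocarcinoma 3617.4 cells expressing GFP-tagged rat glucocorticoid receptor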; for inhibition: reference of the scale not given here
[2] = as above; settings: HCS imaging, dynein-mediated cargo transport inhibition; inhibition at max concentration; at 50 µM; stronger effect = higher value

Cc1nc([N+](=O)[O-])c(Br)n1CC(=O)c1ccc(F)cc1
IC50 [1]: 3.25 µM | inhibition [2]: 92.2%

Cc1ccccc1NC(=O)C(Cl)=C(Cl)Cl
IC50 [1]: 13.4 µM | inhibition [2]: 77.1%

O=C1C(Cl)=C(N2CCCCC2)C(=O)C(Cl)=C1c1cnc(N2CCCCC2)s1
IC50 [1]: 33.2 µM | inhibition [2]: 94.6%

Cc1ccc(Sc2ccc(NC(=O)CCl)cc2)cc1C
IC50 [1]: > 50 µM (inactive) | inhibition [2]: 16.3%

O=C(/C=C/c1cccnc1)/C=C/c1cccnc1
IC50 [1]: 3.09 µM | inhibition [2]: 88.7%

CCN(CC)c1ccc2cc(-c3nc4ccccc4[nH]3)c(=O)oc2c1
IC50 [1]: 21.9 µM | inhibition [2]: 98.9%

COC(=O)c1cc(NC(=O)c2cccc(Cl)c2)c(=O)oc1/C=C/Nc1cc(C)cc(C)c1
IC50 [1]: 2.54 µM | inhibition [2]: 76.3%

Nc1c(C(=O)N/N=C/c2ccc(F)cc2)oc2nc(-c3ccccc3)cc(-c3ccco3)c12
IC50 [1]: > 50 µM (inactive) | inhibition [2]: 40.9%

CC(=O)N(C1CC(C)C(C#N)(C#N)C1(C#N)C#N)N(C)C (stereo not drawn)
IC50 [1]: > 50 µM (inactive) | inhibition [2]: 5.79%

COc1ccc([N+](=O)[O-])c(S(=O)(=O)c2ccc(Cl)cc2)n1
IC50 [1]: > 50 µM (inactive) | inhibition [2]: 34.4%

N/C(=C\C(=O)c1cc(Cl)ccc1O)C(Cl)(Cl)Cl
IC50 [1]: 33 µM | inhibition [2]: 76.1%

N#CC(C#N)=C1C=CC=CN1/C(=C\c1ccco1)C(=O)c1ccccc1
IC50 [1]: > 50 µM (inactive) | inhibition [2]: 19.2%

Nc1c(C(=O)C2CC2)sc2nc(-c3ccccc3)cc(C(F)(F)F)c12
IC50 [1]: 31.2 µM | inhibition [2]: 134%

O=C(Cc1ccccc1)Nc1cccc(N2C(=O)C=CC2=O)c1
IC50 [1]: > 50 µM (inactive) | inhibition [2]: 4.22%

Cn1c(=O)c(NCCO)c2c3c(cccc31)C(=O)c1ccccc1-2
IC50 [1]: > 50 µM (inactive) | inhibition [2]: -13.2%

O=C1C(Cl)=C(NCCN2CCCCC2)C(=O)c2ccccc21
IC50 [1]: 31.8 µM | inhibition [2]: 63.5%

Cc1ccc(-n2ncc(Br)c(Br)c2=O)cc1
IC50 [1]: 13.8 µM | inhibition [2]: 70.1%

COc1ccccc1N1C(=O)CC(Sc2n[nH]c(-c3cccc(C)c3)n2)C1=O (stereo not drawn)
IC50 [1]: > 50 µM (inactive) | inhibition [2]: 5.74%

O=c1c2ccccc2sn1-c1ccccc1
IC50 [1]: 12.7 µM | inhibition [2]: 90.4%

CCN1CC=C2C(C#N)=C(N)C(C#N)(C#N)C(CCc3ccccc3)C2C1 (stereo not drawn)
IC50 [1]: 19.5 µM | inhibition [2]: 98.8%

Cc1cc(C(=O)Cn2ncc(Cl)c(Cl)c2=O)c(C)n1CC(F)(F)F
IC50 [1]: 7.79 µM | inhibition [2]: 78.6%

CCOC(=O)C(=Cc1ccc(OCc2ccc([N+](=O)[O-])cc2)c(OC)c1)C(=O)OCC
IC50 [1]: > 50 µM (inactive) | inhibition [2]: 2.92%

CCN1C(=O)C(=C/C=C/c2ccco2)C(=O)N(CC)C1=S
IC50 [1]: 41.3 µM | inhibition [2]: 75.1%

CC(C)(C)C(=O)Cn1ncc(Cl)c(Cl)c1=O
IC50 [1]: 7.93 µM | inhibition [2]: 90.6%

N#CC(C#N)=C1C=CC=CN1/C(=C\c1ccco1)C(=O)c1ccc(Br)cc1
IC50 [1]: > 50 µM (inactive) | inhibition [2]: 33.6%

O=C(/C=C/c1ccccn1)c1cc(Br)ccc1O
IC50 [1]: 28.3 µM | inhibition [2]: 69.4%

COc1ccc(-n2c(C)cc(C(=O)CCl)c2C)cc1
IC50 [1]: 13.1 µM | inhibition [2]: 80.4%

CCN(CC)c1ccc(/C=N/c2sc3c(c2C#N)C2CCN3CC2)c(O)c1
IC50 [1]: 38 µM | inhibition [2]: 82.6%

COC(=O)c1cc(=O)n(CCc2ccccc2F)c(=Nc2ccc(F)c(Cl)c2)s1
IC50 [1]: > 50 µM (inactive) | inhibition [2]: 11.9%

COCCCn1c(O)c(/C=C2\N=C(C#N)C(=Nc3ccc(C)cc3)O2)sc1=S
IC50 [1]: > 50 µM (inactive) | inhibition [2]: 11%

O=C(CCl)N1N=C(c2cccs2)CC1c1ccco1 (stereo not drawn)
IC50 [1]: > 50 µM (inactive) | inhibition [2]: 47.6%

Cc1ccc(NC(=O)C(=Cc2ccc(C(=O)O)cc2)C(=O)Nc2ccc(C)cc2C)c(C)c1
IC50 [1]: 11.1 µM | inhibition [2]: 78%

CCOC(=O)COc1ccc(/C=C/[N+](=O)[O-])c(OCC(=O)OCC)c1
IC50 [1]: 11.4 µM | inhibition [2]: 82.8%

COc1ccc(N(C(=O)CCl)C(C(=O)NCCc2ccccc2)c2cccs2)cc1Cl (stereo not drawn)
IC50 [1]: 14.8 µM | inhibition [2]: 93.6%

CS(=O)(=O)c1cc([N+](=O)[O-])c(Sc2nc3ccccc3[nH]2)c([N+](=O)[O-])c1
IC50 [1]: > 50 µM (inactive) | inhibition [2]: 22.9%

COC(=O)c1cc([N+](=O)[O-])c(-n2cncn2)c([N+](=O)[O-])c1
IC50 [1]: > 50 µM (inactive) | inhibition [2]: 12.4%

Cc1ccc(C(=O)OCn2ncc(Cl)c(Cl)c2=O)cc1
IC50 [1]: 18.9 µM | inhibition [2]: 76.2%

N#CC(C#N)=C1C=C2C=C(N3CCCCCC3)CCC2CC1 (stereo not drawn)
IC50 [1]: 36.2 µM | inhibition [2]: 99.2%

O=C1CN(C(=O)Cn2ncc(Cl)c(Cl)c2=O)c2ccccc2N1
IC50 [1]: 9.46 µM | inhibition [2]: 76.5%

Cc1ccc(-c2cn3nc(-c4ccccc4)c(-c4ccccc4)nc3n2)cc1
IC50 [1]: 40.2 µM | inhibition [2]: 93.2%

CC(C)c1ccc(CN2CCN(C(=O)CCl)CC2)cc1
IC50 [1]: 7.94 µM | inhibition [2]: 89.6%

CCN1CCN(C2=CC3=CC(=C(C#N)C#N)CCC3CC2)CC1 (stereo not drawn)
IC50 [1]: 30.6 µM | inhibition [2]: 99.2%

C=CCn1c(Sc2ncc([N+](=O)[O-])s2)n[nH]c1=O
IC50 [1]: 20 µM | inhibition [2]: 62.3%

CCN(CC)c1ccc(/C=C/[N+](=O)[O-])cc1
IC50 [1]: > 50 µM (inactive) | inhibition [2]: 0.227%

CCCCc1c(C)c(C#N)c2nc3ccccc3n2c1Cl
IC50 [1]: > 50 µM (inactive) | inhibition [2]: -60.6%

Cc1ccc(NC(=O)CCl)cc1S(=O)(=O)N1CCCCCC1
IC50 [1]: 10.6 µM | inhibition [2]: 88.6%

O=C(CN(c1cccc(C(F)(F)F)c1)S(=O)(=O)c1ccc(Cl)c([N+](=O)[O-])c1)NCc1ccccc1
IC50 [1]: > 50 µM (inactive) | inhibition [2]: 15.7%

CC(C)(C)c1cnnn1-c1ccc(C(=O)CCl)cc1
IC50 [1]: 6.44 µM | inhibition [2]: 67.1%

Cn1c(=O)c(Nc2ccc(Cl)cc2)c2c3c(cccc31)C(=O)c1ccccc1-2
IC50 [1]: 31 µM | inhibition [2]: 97.8%

COc1ccccc1-[n+]1c(C)cc(/C=C2\Sc3ccccc3N2C)cc1C
IC50 [1]: 9.31 µM | inhibition [2]: 92%

COC(=O)c1ccc(-n2c(C)cc(C(=O)CCl)c2C)cc1
IC50 [1]: 21.9 µM | inhibition [2]: 66.8%

C=C1C(=O)O[C@H]2C[C@@H](C)[C@@H]3C=CC(=O)[C@@]3(C)C[C@H]12
IC50 [1]: 8.71 µM | inhibition [2]: 89.6%

CC1(C)CCSC(/C=C/c2ccccc2)=N1
IC50 [1]: 18.7 µM | inhibition [2]: 92.6%

COc1ccc(-n2ncc(Cl)c(Cl)c2=O)cc1
IC50 [1]: 21.6 µM | inhibition [2]: 84.7%

COc1cccc(C2CC3C(=O)C=CC2N3Cc2ccccc2)c1 (stereo not drawn)
IC50 [1]: 13.3 µM | inhibition [2]: 90%

N#CC(C#N)=C1C=C2C=C(N3CCOCC3)CCC2CC1 (stereo not drawn)
IC50 [1]: 42.8 µM | inhibition [2]: 99%

O=C1CCCCc2sc(Br)c([N+](=O)[O-])c2N1
IC50 [1]: 7.06 µM | inhibition [2]: 66.9%

COC(=O)c1cc(NC(=O)c2ccccc2)c(=O)oc1/C=C/Nc1ccc(Oc2ccccc2)cc1
IC50 [1]: 1.16 µM | inhibition [2]: 102%

O=c1c(Cl)cc(Cl)nn1-c1ccccc1
IC50 [1]: 10.5 µM | inhibition [2]: 72.4%

CC(=O)OCCCNc1cc(SCc2ccco2)c2nonc2c1[N+](=O)[O-]
IC50 [1]: 35.1 µM | inhibition [2]: 67.7%

CC[n+]1c(/C=C/C=C/N(C(C)=O)c2ccccc2)sc2ccccc21
IC50 [1]: 1.08 µM | inhibition [2]: 99.6%

O=C(O)c1ccc(NC2=C(Cl)C(=O)c3ccccc3C2=O)cc1
IC50 [1]: 15.2 µM | inhibition [2]: 71.1%

O=C(Nc1ccc(F)cc1)c1nn(-c2ccccc2)c(=O)cc1Cl
IC50 [1]: 35.7 µM | inhibition [2]: 76.4%

COC(=O)c1cc(=O)n(Cc2ccc3c(c2)OCO3)c(=Nc2ccc(F)c(Cl)c2)s1
IC50 [1]: > 50 µM (inactive) | inhibition [2]: 8.81%

CCCNC(=O)c1nnsc1S(=O)c1ccc(Cl)cc1 (stereo not drawn)
IC50 [1]: 7.07 µM | inhibition [2]: 77%

Cc1cccc2cc3c(N)c(C(=O)N4CCCc5ccccc54)sc3nc12
IC50 [1]: 35.2 µM | inhibition [2]: 116%

COc1ccc(N2C(=O)CC(Sc3ncn[nH]3)C2=O)c(OC)c1 (stereo not drawn)
IC50 [1]: > 50 µM (inactive) | inhibition [2]: 5.17%

CCOC(=O)N1C/C(=C\c2ccccc2)C(=O)/C(=C/c2ccccc2)C1
IC50 [1]: 32.8 µM | inhibition [2]: 78.7%

O=C(Nc1ccc(Cl)cc1)/C(=C/c1cccc(O)c1)c1nc2ccccc2s1
IC50 [1]: > 50 µM (inactive) | inhibition [2]: 40.7%

Cc1c(N=C2C=CC(=O)c3ccccc32)c(=O)n(-c2ccccc2)n1C
IC50 [1]: 39.6 µM | inhibition [2]: 76.4%

COc1cccc(/C(O)=C/c2nc3ccc(C(=O)NCCc4ccc(Cl)cc4)cc3[nH]c2=O)c1
IC50 [1]: > 50 µM (inactive) | inhibition [2]: 32.4%

O=C(c1nnsc1S(=O)c1ccc(Cl)cc1)N1CCOCC1 (stereo not drawn)
IC50 [1]: 2.18 µM | inhibition [2]: 76.9%

COC(=O)c1cc(=O)n(Cc2cccs2)c(=Nc2ccccc2)s1
IC50 [1]: > 50 µM (inactive) | inhibition [2]: 32.2%

CC(C)(C)NC(=S)N/N=C\c1ccc(-c2ccc([N+](=O)[O-])cc2)o1
IC50 [1]: > 50 µM (inactive) | inhibition [2]: 3.06%

O=C(c1nnsc1S(=O)(=O)c1ccc(Cl)cc1)N1CCOCC1
IC50 [1]: 5.38 µM | inhibition [2]: 60.5%

COc1ccc(N=C2S/C(=C\c3ccc(N4CCOCC4)o3)C(=O)N2CCc2c[nH]c3ccccc23)cc1
IC50 [1]: 27.1 µM | inhibition [2]: 127%

O=C(NCc1cccnc1)/C(=C\c1ccc(-c2ccc(Cl)c(Cl)c2)o1)S(=O)(=O)c1ccccc1
IC50 [1]: > 50 µM (inactive) | inhibition [2]: 9.8%

COc1ccc(-c2csc3nc(-c4ccccc4F)oc(=O)c23)cc1OC
IC50 [1]: > 50 µM (inactive) | inhibition [2]: 20.3%

Nc1c(C(=O)c2cccs2)sc2nsc(SCCN3CCCCC3)c12
IC50 [1]: > 50 µM (inactive) | inhibition [2]: 11.4%

O=S(=O)(c1ccccc1)c1ncc(C(F)(F)F)cc1Cl
IC50 [1]: 8.14 µM | inhibition [2]: 79.3%

Cc1ccc(C(=O)NC(C#N)=C(Cl)Cl)cc1
IC50 [1]: 6.71 µM | inhibition [2]: 82.3%

CCOC(=O)C(C(=O)OCC)C(C(=O)OCC)N1CCOCC1 (stereo not drawn)
IC50 [1]: 14 µM | inhibition [2]: 89.2%

CC(=O)/C=C/n1c(=S)oc2ccccc21
IC50 [1]: 23.4 µM | inhibition [2]: 69.5%

O=[N+]([O-])c1ccc(N/N=C/c2c[nH]c3ccccc23)cc1
IC50 [1]: 21.7 µM | inhibition [2]: 118%

Source: PubChem BioAssay AID463136 (University of Pittsburgh Molecular Library Screening Center, 2010)
